From patent US20250340591A1, “COMPOSITION FOR PREVENTING OR TREATING INFLAMMATORY BOWEL DISEASE CONTAINING NOVEL COMPOUND” (ANYGEN CO., LTD., priority 2021, published 2025)
Like-named read-outs stand apart in the source and are kept apart here. Square brackets hold non-standard residues; d marks the D form. Ends that are not written are not given here. Peptide text beside a SMILES is read from it. * marks the point of attachment. His(Trt) = N[C@@H](Cc1cn(C(c2ccccc2)(c2ccccc2)c2ccccc2)cn1)C(=O)O; dPhe(4-Me) = Cc1ccc(C[C@@H](N)C(=O)O)cc1; dPhe(4-F) = N[C@H](Cc1ccc(F)cc1)C(=O)O; Benzhydryl = c1ccc(C(c2ccccc2)*)cc1; d3Pal = N[C@H](Cc1cccnc1)C(=O)O; Octanoyl = CCCCCCCC(=O)*; Boc = CC(C)(C)OC(=O)*

T1: GPR39 (Homo sapiens, UniProt O43194)
T1 sequence (O43194 1-453): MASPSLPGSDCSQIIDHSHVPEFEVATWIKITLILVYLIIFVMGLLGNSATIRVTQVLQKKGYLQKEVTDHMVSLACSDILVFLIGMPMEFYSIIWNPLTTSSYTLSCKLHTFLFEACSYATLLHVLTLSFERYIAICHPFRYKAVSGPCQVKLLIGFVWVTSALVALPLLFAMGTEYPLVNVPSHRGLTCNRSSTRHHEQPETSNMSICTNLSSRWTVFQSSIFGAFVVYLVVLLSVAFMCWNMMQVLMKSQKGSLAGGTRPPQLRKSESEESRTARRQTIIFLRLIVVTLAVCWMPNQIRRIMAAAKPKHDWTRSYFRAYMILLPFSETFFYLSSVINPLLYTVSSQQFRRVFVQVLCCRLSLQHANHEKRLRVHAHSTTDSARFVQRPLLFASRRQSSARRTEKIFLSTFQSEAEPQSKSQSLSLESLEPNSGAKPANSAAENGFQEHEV

T2: GPR39 (G protein coupled receptor 39) (UniProt O43194 1-453, limits assumed)
T2 sequence (looked up): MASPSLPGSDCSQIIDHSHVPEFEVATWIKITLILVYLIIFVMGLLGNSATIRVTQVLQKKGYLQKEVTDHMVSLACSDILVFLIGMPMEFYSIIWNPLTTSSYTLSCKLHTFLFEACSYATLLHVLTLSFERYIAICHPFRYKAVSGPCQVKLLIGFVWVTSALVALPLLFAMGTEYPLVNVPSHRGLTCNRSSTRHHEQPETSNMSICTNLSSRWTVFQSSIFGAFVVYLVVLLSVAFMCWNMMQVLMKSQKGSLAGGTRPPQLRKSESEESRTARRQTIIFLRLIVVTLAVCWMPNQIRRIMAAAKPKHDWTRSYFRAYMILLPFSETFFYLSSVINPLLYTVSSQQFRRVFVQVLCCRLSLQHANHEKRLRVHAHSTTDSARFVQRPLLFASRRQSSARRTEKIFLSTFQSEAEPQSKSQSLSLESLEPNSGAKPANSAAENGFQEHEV

T3: human GPR39 (human, UniProt O43194 1-453)
T3 sequence (looked up): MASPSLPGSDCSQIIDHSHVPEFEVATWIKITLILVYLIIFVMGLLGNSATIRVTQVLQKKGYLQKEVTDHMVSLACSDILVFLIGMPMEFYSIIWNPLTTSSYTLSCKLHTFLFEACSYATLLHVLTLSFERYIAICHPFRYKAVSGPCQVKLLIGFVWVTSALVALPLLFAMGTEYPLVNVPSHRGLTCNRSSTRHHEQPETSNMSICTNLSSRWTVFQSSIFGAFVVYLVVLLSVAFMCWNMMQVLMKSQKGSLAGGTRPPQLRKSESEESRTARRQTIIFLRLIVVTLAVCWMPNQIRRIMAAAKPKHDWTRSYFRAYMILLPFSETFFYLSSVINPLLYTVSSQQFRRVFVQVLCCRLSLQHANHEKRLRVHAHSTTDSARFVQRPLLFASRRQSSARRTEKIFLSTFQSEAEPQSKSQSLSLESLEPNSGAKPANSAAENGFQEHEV


How the values were obtained:
GPR39 = molecular target: T1, GPR39; assay: luciferase assay system (SRE luciferase reporter gene, CV-1 cells expressing GPR39); assay type: cell-based; parameters: expressed in transfected cells; host or cells: CV-1 fibroblast cell line (Korea Cell Line Bank), adenoviral transduction at 50 MOI
[1] = molecular target: T2, GPR39 (G protein coupled receptor 39); assay: cell-based or functional assay
[2] = molecular target: T2, GPR39 (G protein coupled receptor 39); assay: cell-based or functional assay; remark: listed apart in the source
human GPR39 = molecular target: T3, human GPR39; assay: cell-based or functional assay

Molecule	ECmax (−fold induction over basal) (GPR39) [fold induction over basal]	further results
CCCCCCCC(=O)NCCCC[C@H](NC(=O)[C@@H](N)Cc1cn(C(c2ccccc2)(c2ccccc2)c2ccccc2)cn1)C(=O)N[C@@H](Cc1ccccc1)C(=O)N[C@@H](Cc1ccc(O)cc1)C(=O)N[C@@H](CO)C(=O)N[C@@H](CCC(N)=O)C(=O)N[C@@H](CC(=O)O)C(=O)NCC(=O)N[C@@H](C)C(=O)N[C@@H](CCCNC(=N)N)C(=O)N[C@@H](Cc1ccccc1)C(N)=O [HKFY-41, (3S,6S,9S,12S,15S,18S)-3-((2-(((S)-1-(((S)-1-(((S)-1-amino-1-oxo-3-phenylpropan-2-yl)amino)-5-guanidino-1-oxopentan-2-yl)amino)-1-oxopropan-2-yl)amino)-2-oxoethyl)carbamoyl)-18-((S)-2-amino-3-(1-trityl-1H-imidazol-4-yl)propanamido)-6-(3-amino-3-oxopropyl)-15-benzyl-12-(4-hydroxybenzyl)-9-(hydroxymethyl)-5,8,11,14,17,24-hexaoxo-4,7,10,13,16,23-hexaazahentriacontanoic acid] (H-[His(Trt)]K(Octanoyl)FYSQDGARF-NH2)		ECmax (−fold induction over basal) (GPR39; CV-1 cells, GPR39 and SRE luciferase adenovirus, 6 hours treatment): 12.2 ± 0.02 fold induction over basal
CCCCCCCC(=O)NCCCC[C@H](NC(=O)[C@@H](N)Cc1cn(C(c2ccccc2)(c2ccccc2)c2ccccc2)cn1)C(=O)N[C@H](Cc1ccc(C)cc1)C(=O)N[C@@H](Cc1ccc(O)cc1)C(=O)O [HKFY-30, ((R)-2-((S)-2-((S)-2-amino-3-(1-trityl-1H-imidazol-4-yl)propanamido)-6-octanamidohexanamido)-3-(p-tolyl)propanoyl)-L-tyrosine] (H-[His(Trt)]K(Octanoyl)[dPhe(4-Me)]Y-OH)	23.88 ± 3.04	activity level for GPR39 (in words) (GPR39; comment on Table 3): higher activity level than other HKFY derivatives; activity and ECmax value for GPR39 (in words) (GPR39; comment on Table 3, derivatives composed of d-Phe(methyl)): most excellent activity and high ECmax value
CCCCCCCC(=O)NCCCC[C@H](NC(=O)[C@@H](N)CC1=CNCN1CCC1CCCCC1)C(=O)N[C@@H](Cc1ccccc1)C(=O)N[C@@H](Cc1ccc(O)cc1)C(=O)O [HKFY-7, N2-((S)-2-amino-3-(3-(2-cyclohexylethyl)-2,3-dihydro-1H-imidazol-4-yl)propanoyl)-N6-octanoyl-L-lysyl-L-phenylalanyl-L-tyrosine]	16 ± 2.2	
CCCCCCCC(=O)NCCCC[C@H](NC(=O)[C@@H](N)Cc1cn(C(c2ccccc2)(c2ccccc2)c2ccc(C)cc2)cn1)C(=O)N[C@@H](Cc1ccccc1)C(=O)N[C@@H](Cc1ccc(O)cc1)C(=O)O [HKFY-5, N2-(Nt-(diphenyl(p-tolyl)methyl)-L-histidyl)-N6-octanoyl-L-lysyl-L-phenylalanyl-L-tyrosine]	16 ± 1.7	
CCCCCCCC(=O)NCCCC[C@H](NC(=O)[C@@H](N)Cc1cn(C(c2ccccc2)(c2ccccc2)c2ccccc2)cn1)C(=O)N[C@H](Cc1ccc(F)cc1)C(=O)N[C@@H](Cc1ccc(O)cc1)C(=O)O [HKFY-28, ((R)-2-((S)-2-((S)-2-amino-3-(1-trityl-1H-imidazol-4-yl)propanamido)-6-octanamidohexanamido)-3-(4-fluorophenyl)propanoyl)-L-tyrosine] (H-[His(Trt)]K(Octanoyl)[dPhe(4-F)]Y-OH)	22.95 ± 2.58	
CCCCCCCC(=O)NCCCC[C@H](NC(=O)[C@H](Cc1c[nH]c2ccccc12)NC(=O)OC(C)(C)C)C(=O)N[C@H](Cc1ccc(C)cc1)C(=O)N[C@@H](Cc1ccc(O)cc1)C(=O)O [HKFY-78, ((R)-2-((S)-2-((S)-2-((tert-butoxycarbonyl)amino)-3-(1H-indol-3-yl)propanamido)-6-octanamidohexanamido)-3-(p-tolyl)propanoyl)-L-tyrosine] (Boc-WK(Octanoyl)[dPhe(4-Me)]Y-OH)	11.4 ± 1.54	
CCCCCCCC(=O)NCCCC[C@H](NC(=O)[C@@H](N)CC1=CN(CCc2ccccc2)CN1CCc1ccccc1)C(=O)N[C@@H](Cc1ccccc1)C(=O)N[C@@H](Cc1ccc(O)cc1)C(=O)O [HKFY-6, N2-((S)-2-amino-3-(1,3-diphenethyl-2,3-dihydro-1H-imidazol-4-yl)propanoyl)-N6-octanoyl-L-lysyl-L-phenylalanyl-L-tyrosine]	15 ± 2.12	
H(Benzhydryl)K(Octanoyl)[dPhe(4-Me)]Y [HKFY-34]		EC50; SRE-luciferase reporter [1]: 7 nM; ECmax; SRE-luciferase reporter [1]: 22.4 -fold induction over basal; EC50; Reporter gene assay [2]: 6.7 nM; ECmax; Reporter gene assay [2]: 22.4 -fold induction over basal; EC50; Ca2+ influx assay (human GPR39): 2.7 nM; ECmax; Ca2+ influx assay (human GPR39): 2.4 -fold induction over basal

Now from value to molecule, other results behind:

ECmax (−fold induction over basal) (GPR39) [fold induction over basal]	Molecule	further results
18.3 ± 1.8	CCCCCCCC(=O)NCCCC[C@H](NC(=O)[C@@H](N)Cc1cn(C(c2ccccc2)(c2ccccc2)c2ccccc2)cn1)C(=O)N[C@@H](Cc1ccccc1)C(=O)O [HKFY-49, N6-octanoyl-N2-(Nt-trityl-L-histidyl)-L-lysyl-L-phenylalanine] (H-[His(Trt)]-Lys(Octanoyl)-Phe-OH)	
11.6 ± 2.3	CCCCCCCC(=O)NCCCC[C@H](NC(=O)[C@@H](N)Cc1cn(C(c2ccccc2)(c2ccccc2)c2ccccc2)cn1)C(=O)N[C@H](Cc1cccnc1)C(=O)N[C@@H](Cc1ccc(O)cc1)C(=O)O [HKFY-73, ((R)-2-((S)-2-((S)-2-amino-3-(1-trityl-1H-imidazol-4-yl)propanamido)-6-octanamidohexanamido)-3-(pyridin-3-yl)propanoyl)-L-tyrosine] (H-[His(Trt)]K(Octanoyl)[d3Pal]Y-OH)	
8.5 ± 2.3	CCCCCCCC(=O)NCCCC[C@H](NC(=O)[C@@H](N)Cc1c[nH]c(-c2ccccc2)n1)C(=O)N[C@H](Cc1ccc(C)cc1)C(=O)N[C@@H](Cc1ccc(O)cc1)C(=O)O [HKFY-57, ((R)-2-((S)-2-((S)-2-amino-3-(2-phenyl-1H-imidazol-4-yl)propanamido)-6-octanamidohexanamido)-3-(p-tolyl)propanoyl)-L-tyrosine]	
9.88 ± 1.8	CCCCCCCC(=O)NCCCC[C@H](NC(=O)[C@@H](N)Cc1cn(-c2ccc(C(C)(C)C)cc2)cn1)C(=O)N[C@H](Cc1ccc(C)cc1)C(=O)N[C@@H](Cc1ccc(O)cc1)C(=O)O [HKFY-61, ((R)-2-((S)-2-((S)-2-amino-3-(1-(4-(tert-butyl)phenyl)-1H-imidazol-4-yl)propanamido)-6-octanamidohexanamido)-3-(p-tolyl)propanoyl)-L-tyrosine]	
11.8 ± 0.02	CCCCCCCC(=O)NCCCC[C@H](NC(=O)[C@@H](N)Cc1cn(C(c2ccccc2)(c2ccccc2)c2ccccc2)cn1)C(=O)N[C@@H](Cc1ccccc1)C(=O)N[C@@H](Cc1ccc(O)cc1)C(=O)N[C@@H](Cc1c[nH]cn1)C(=O)N[C@@H](CCC(N)=O)C(=O)N[C@@H](CCC(N)=O)C(=O)N[C@@H](C)C(=O)N[C@@H](CCCNC(=N)N)C(=O)N[C@@H](Cc1ccccc1)C(N)=O [HKFY-42, (S)-2-((2S,5S,8S,11S)-2-((1H-imidazol-4-yl)methyl)-11-((S)-2-amino-3-(1-trityl-1H-imidazol-4-yl)propanamido)-8-benzyl-5-(4-hydroxybenzyl)-4,7,10,17-tetraoxo-3,6,9,16-tetraazatetracosanamido)-N1-((S)-5-amino-1-(((S)-1-(((S)-1-(((S)-1-amino-1-oxo-3-phenylpropan-2-yl)amino)-5-guanidino-1-oxopentan-2-yl)amino)-1-oxopropan-2-yl)amino)-1,5-dioxopentan-2-yl)pentanediamide] (H-[His(Trt)]K(Octanoyl)FYHQQARF-NH2)	
